What is called IC50 is the concentration that gives 50% inhibition. The term EC50 denotes the concentration needed to bring the measured effect to its halfway point.

For test [1], the target named is T1, Adenylate cyclase type 1 (Homo sapiens, UniProt Q08828). The experiment in a line: (§1) Inhibition of [125 I]6-IHPP-forskolin binding to adenylate cyclase 1.
Target sequence in this assay (Q08828 whole entry): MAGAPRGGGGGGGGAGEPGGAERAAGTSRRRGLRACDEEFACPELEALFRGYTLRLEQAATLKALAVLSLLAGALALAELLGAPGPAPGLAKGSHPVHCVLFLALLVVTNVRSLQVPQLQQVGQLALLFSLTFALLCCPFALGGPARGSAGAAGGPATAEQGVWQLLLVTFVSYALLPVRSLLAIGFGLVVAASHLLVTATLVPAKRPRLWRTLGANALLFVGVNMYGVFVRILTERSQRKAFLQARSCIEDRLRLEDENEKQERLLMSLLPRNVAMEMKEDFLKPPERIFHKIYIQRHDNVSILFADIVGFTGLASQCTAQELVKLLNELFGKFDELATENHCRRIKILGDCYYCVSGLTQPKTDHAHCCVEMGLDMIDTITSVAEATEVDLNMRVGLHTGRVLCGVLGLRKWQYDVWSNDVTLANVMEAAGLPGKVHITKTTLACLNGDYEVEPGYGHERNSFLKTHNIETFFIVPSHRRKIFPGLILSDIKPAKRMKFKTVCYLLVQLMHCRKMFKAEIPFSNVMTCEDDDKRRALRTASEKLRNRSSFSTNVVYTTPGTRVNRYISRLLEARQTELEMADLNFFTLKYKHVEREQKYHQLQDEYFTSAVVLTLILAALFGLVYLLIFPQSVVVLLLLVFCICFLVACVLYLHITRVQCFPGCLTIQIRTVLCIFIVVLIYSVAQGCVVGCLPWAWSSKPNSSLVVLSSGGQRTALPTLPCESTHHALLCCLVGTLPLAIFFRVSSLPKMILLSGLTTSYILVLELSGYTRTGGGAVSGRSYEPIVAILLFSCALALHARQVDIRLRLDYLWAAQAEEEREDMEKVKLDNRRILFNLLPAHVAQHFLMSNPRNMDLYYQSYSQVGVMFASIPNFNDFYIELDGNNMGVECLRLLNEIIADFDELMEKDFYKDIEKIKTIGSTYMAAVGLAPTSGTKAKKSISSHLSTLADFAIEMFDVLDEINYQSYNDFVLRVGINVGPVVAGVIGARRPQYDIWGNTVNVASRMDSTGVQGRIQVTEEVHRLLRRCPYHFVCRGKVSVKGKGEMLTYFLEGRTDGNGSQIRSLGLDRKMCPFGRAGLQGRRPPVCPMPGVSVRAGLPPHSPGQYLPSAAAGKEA
Test [2] deals with T1, Adenylate cyclase type 1. Kind of test: Ability to activate the conversion of [32P] ATP to [32P]-cyclic AMP mediated by adenylate cyclase 1. Type of test: functional.
Target sequence in this assay (Q08828 whole entry): as above
The target in test [3] is T1, Adenylate cyclase type 1. Kind of test: Maximum stimulation activity measured with 100 uM forskolin mediated by adenylate cyclase 1. Type of test: functional.
Target sequence in this assay (Q08828 whole entry, looked up): as the sequence (Q08828 whole entry) above
For test [4], the target named is T1, Adenylate cyclase type 1. The description is as §1. This is another data set of the same source.
Target sequence in this assay (Q08828 whole entry): as above
Test [5] has as its target T1, Adenylate cyclase type 1. Kind of test: Conversion of [32P] ATP to [32P]-cyclic AMP mediated by adenylate cyclase 1. Type of test: functional.
Target sequence in this assay (Q08828 whole entry): as above

Regarding `C=C[C@@]1(C)CC(=O)[C@]2(O)[C@@]3(C)[C@@H](O)CCC(C)(C)[C@@H]3[C@H](OC(=O)NCCc3ccc(N)cc3)[C@H](OC(C)=O)[C@@]2(C)O1`, the values for the IC50 on Adenylate cyclase type 1 [1] and on Adenylate cyclase type 1 [4] were less than 150 nM and 39 nM, respectively. The concentration for a half-maximal effect (EC50) at Adenylate cyclase type 1 [2] was less than 2000 nM; on Adenylate cyclase type 1 [5] (read-out: EC50), 500 nM. In addition, the Activity at Adenylate cyclase type 1 [3] was 55%.
For `C=C[C@@]1(C)CC(=O)[C@]2(O)[C@@]3(C)[C@@H](O)CCC(C)(C)[C@@H]3[C@H](OC(=O)NCC3CCCCC3)[C@H](OC(C)=O)[C@@]2(C)O1` the same measures were greater than 150 nM, 117 nM, greater than 2000 nM, 6600 nM and 74%.
Turning to `C=C[C@@]1(C)CC(=O)[C@]2(O)[C@@]3(C)[C@@H](O)CCC(C)(C)[C@@H]3[C@H](OC(=O)NCCC(C)(C)C)[C@H](OC(C)=O)[C@@]2(C)O1`, the results for the IC50 on Adenylate cyclase type 1 [1] and on Adenylate cyclase type 1 [4] were greater than 150 nM and 271 nM, respectively. The EC50 at Adenylate cyclase type 1 [2] was greater than 2000 nM; on Adenylate cyclase type 1 [5] (read-out: EC50) it was 8100 nM. Moreover, the Activity on Adenylate cyclase type 1 [3] came to 84%.
For `C=C[C@@]1(C)CC(=O)[C@]2(O)[C@@]3(C)[C@@H](O)CCC(C)(C)[C@@H]3[C@H](OC(=O)NCCC(C)(C)C)[C@H](O)[C@@]2(C)O1`, in that order: greater than 150 nM, 680 nM, greater than 2000 nM, 2100 nM and 63%.
For `C=C[C@@]1(C)CC(=O)[C@]2(O)[C@@]3(C)[C@@H](O)CCC(C)(C)[C@@H]3[C@H](OC(=O)NCC3CCCCC3)[C@H](O)[C@@]2(C)O1` the same measures were greater than 150 nM, 433 nM, less than 2000 nM, 1000 nM and 51%.
On to `C=C[C@@]1(C)CC(=O)[C@]2(O)[C@@]3(C)[C@@H](O)CCC(C)(C)[C@@H]3[C@H](OC(=O)NCCc3ccccc3)[C@H](O)[C@@]2(C)O1`, for which the IC50 on Adenylate cyclase type 1 [1] was less than 150 nM; on Adenylate cyclase type 1 [4], 65 nM. Moreover, the EC50 at Adenylate cyclase type 1 [2] is less than 2000 nM; on Adenylate cyclase type 1 [5] (read-out: EC50), 1100 nM. Besides, the Activity at Adenylate cyclase type 1 [3] was 72%.
For `C=C[C@@]1(C)CC(=O)[C@]2(O)[C@@]3(C)[C@@H](O)CCC(C)(C)[C@@H]3[C@H](OC(=O)NCCC(=O)OCC)[C@H](OC(C)=O)[C@@]2(C)O1` the same measures were less than 150 nM, 44 nM, greater than 2000 nM, 3500 nM and 157%.
For `C=C[C@@]1(C)CC(=O)[C@]2(O)[C@@]3(C)[C@@H](O)CCC(C)(C)[C@@H]3[C@H](OC(=O)NCCN(C)C)[C@H](O)[C@@]2(C)O1`, in that order: greater than 150 nM, 247 nM, greater than 2000 nM, 4900 nM and 131%.
As to `C=C[C@@]1(C)CC(=O)[C@]2(O)[C@@]3(C)[C@@H](O)CCC(C)(C)[C@@H]3[C@H](O)[C@H](OC(=O)NCCc3ccccn3)[C@@]2(C)O1`, the values for the IC50 at Adenylate cyclase type 1 [1] and on Adenylate cyclase type 1 [4] were less than 150 nM and 143 nM, respectively. In addition, the EC50 on Adenylate cyclase type 1 [2] was less than 2000 nM; at Adenylate cyclase type 1 [5] (read-out: EC50) it was 1100 nM. The molecule also came in with an Activity on Adenylate cyclase type 1 [3] of 91%.
Take `C=C[C@@]1(C)CC(=O)[C@]2(O)[C@@]3(C)[C@@H](O)CCC(C)(C)[C@@H]3[C@H](OC(=O)NCCc3ccc(N)cc3)[C@H](O)[C@@]2(C)O1`: the IC50 on Adenylate cyclase type 1 [1] is greater than 150 nM; on Adenylate cyclase type 1 [4], 162 nM. For the same molecule, the EC50 at Adenylate cyclase type 1 [2] was greater than 2000 nM; at Adenylate cyclase type 1 [5] (read-out: EC50) it was 5100 nM. The molecule further gave an Activity at Adenylate cyclase type 1 [3] of 83%.
For `C=C[C@@]1(C)CC(=O)[C@]2(O)[C@@]3(C)[C@@H](O)CCC(C)(C)[C@@H]3[C@H](OC(=O)NCCc3ccc(O)cc3)[C@H](O)[C@@]2(C)O1` the same measures were greater than 150 nM, 236 nM, less than 2000 nM, 630 nM and 86%.
For `C=C[C@@]1(C)CC(=O)[C@]2(O)[C@@]3(C)[C@@H](O)CCC(C)(C)[C@@H]3[C@H](O)[C@H](OC(=O)NCCc3ccccc3)[C@@]2(C)O1` the same measures were greater than 150 nM, 251 nM, greater than 2000 nM, 2100 nM and 75%.
For `C=CCNC(=O)O[C@H]1[C@H]2C(C)(C)CC[C@H](O)[C@]2(C)[C@@]2(O)C(=O)C[C@](C)(C=C)O[C@]2(C)[C@H]1O` the same measures were greater than 150 nM, 306 nM, greater than 2000 nM, 3500 nM and 94%.
As to `C=C[C@@]1(C)CC(=O)[C@]2(O)[C@@]3(C)[C@@H](O)CCC(C)(C)[C@@H]3[C@H](O)[C@H](OC(=O)NCCc3ccc(O)cc3)[C@@]2(C)O1`, the IC50 at Adenylate cyclase type 1 [1] is less than 150 nM; on Adenylate cyclase type 1 [4], 95 nM. In addition, the EC50 is less than 2000 nM on Adenylate cyclase type 1 [2] and 1400 nM at Adenylate cyclase type 1 [5] (read-out: EC50). For the same molecule, the Activity at Adenylate cyclase type 1 [3] turned out to be 45%.
On to `C=C[C@@]1(C)CC(=O)[C@]2(O)[C@@]3(C)[C@@H](O)CCC(C)(C)[C@@H]3[C@H](OC(=O)NCCN)[C@H](OC(C)=O)[C@@]2(C)O1`, for which the IC50 at Adenylate cyclase type 1 [1] is less than 150 nM; on Adenylate cyclase type 1 [4], 31 nM. Moreover, the EC50 at Adenylate cyclase type 1 [2] is less than 2000 nM; at Adenylate cyclase type 1 [5] (read-out: EC50), 600 nM. The same molecule yielded an Activity on Adenylate cyclase type 1 [3] of 125%.
For `C=C[C@@]1(C)CC(=O)[C@]2(O)[C@@]3(C)[C@@H](O)CCC(C)(C)[C@@H]3[C@H](OC(=O)NCCO)[C@H](O)[C@@]2(C)O1` the same measures were greater than 150 nM, 230 nM, greater than 2000 nM, 3600 nM and 85%.
Take `C=C[C@@]1(C)CC(=O)[C@]2(O)[C@@]3(C)[C@@H](O)CCC(C)(C)[C@@H]3[C@H](O)[C@H](OC(=O)NCC(C)C)[C@@]2(C)O1`: the IC50 at Adenylate cyclase type 1 [1] was less than 150 nM; on Adenylate cyclase type 1 [4], 112 nM. For the same molecule, the EC50 is greater than 2000 nM at Adenylate cyclase type 1 [2] and 2700 nM on Adenylate cyclase type 1 [5] (read-out: EC50). This molecule gave an Activity at Adenylate cyclase type 1 [3] of 72%.
As for `C=C[C@@]1(C)CC(=O)[C@]2(O)[C@@]3(C)[C@@H](O)CCC(C)(C)[C@@H]3[C@H](OC(=O)NCCOC)[C@H](OC(C)=O)[C@@]2(C)O1`, the IC50 on Adenylate cyclase type 1 [1] was less than 150 nM; on Adenylate cyclase type 1 [4], 32 nM. Moreover, the EC50 is less than 2000 nM at Adenylate cyclase type 1 [2] and 700 nM at Adenylate cyclase type 1 [5] (read-out: EC50). This molecule also returned an Activity on Adenylate cyclase type 1 [3] of 71%.
For `C=C[C@@]1(C)CC(=O)[C@]2(O)[C@@]3(C)[C@@H](O)CCC(C)(C)[C@@H]3[C@H](O)[C@H](OC(=O)NCCC(C)(C)C)[C@@]2(C)O1`, in that order: greater than 150 nM, 608 nM, greater than 2000 nM, 9600 nM and 58%.
Consider `C=C[C@@]1(C)CC(=O)[C@]2(O)[C@@]3(C)[C@@H](O)CCC(C)(C)[C@@H]3[C@H](OC(=O)NCCC)[C@H](OC(C)=O)[C@@]2(C)O1`, for which the IC50 on Adenylate cyclase type 1 [1] is less than 150 nM; on Adenylate cyclase type 1 [4] it was 76 nM. For the same molecule, the figures for the EC50 at Adenylate cyclase type 1 [2] and on Adenylate cyclase type 1 [5] (read-out: EC50) were greater than 2000 nM and 4300 nM, respectively. On Adenylate cyclase type 1 [3], the Activity was found to be 80%.
For `C=C[C@@]1(C)CC(=O)[C@]2(O)[C@@]3(C)[C@@H](O)CCC(C)(C)[C@@H]3[C@H](O)[C@H](OC(=O)NCCN)[C@@]2(C)O1` the same measures were less than 150 nM, 128 nM, less than 2000 nM, 700 nM and 85%.
For `C=C[C@@]1(C)CC(=O)[C@]2(O)[C@@]3(C)[C@@H](O)CCC(C)(C)[C@@H]3[C@H](OC(=O)NCC(C)C)[C@H](OC(C)=O)[C@@]2(C)O1`, in that order: greater than 150 nM, 167 nM, greater than 2000 nM, 4100 nM and 93%.
On to `C=C[C@@]1(C)CC(=O)[C@]2(O)[C@@]3(C)[C@@H](O)CCC(C)(C)[C@@H]3[C@H](OC(=O)NCCO)[C@H](OC(C)=O)[C@@]2(C)O1`, for which the IC50 was less than 150 nM on Adenylate cyclase type 1 [1] and 142 nM at Adenylate cyclase type 1 [4]. For the same molecule, the EC50 at Adenylate cyclase type 1 [2] was less than 2000 nM; on Adenylate cyclase type 1 [5] (read-out: EC50) it was 500 nM. Further, the Activity on Adenylate cyclase type 1 [3] turned out to be 57%.
For `C=CCNC(=O)O[C@H]1[C@@H](O)[C@H]2C(C)(C)CC[C@H](O)[C@]2(C)[C@@]2(O)C(=O)C[C@](C)(C=C)O[C@]12C` the same measures were greater than 150 nM, 157 nM, greater than 2000 nM, 2400 nM and 102%.
Turning to `C=C[C@@]1(C)CC(=O)[C@]2(O)[C@@]3(C)[C@@H](O)CCC(C)(C)[C@@H]3[C@H](OC(=O)NCCN(C)C)[C@H](OC(C)=O)[C@@]2(C)O1`, the IC50 was less than 150 nM on Adenylate cyclase type 1 [1] and 73 nM on Adenylate cyclase type 1 [4]. Besides, the figures for the EC50 at Adenylate cyclase type 1 [2] and on Adenylate cyclase type 1 [5] (read-out: EC50) were less than 2000 nM and 2000 nM, respectively. On Adenylate cyclase type 1 [3], this molecule yielded an Activity of 100%.
For `C=C[C@@]1(C)CC(=O)[C@]2(O)[C@@]3(C)[C@@H](O)CCC(C)(C)[C@@H]3[C@H](OC(=O)NCCN3CCCCC3)[C@H](OC(C)=O)[C@@]2(C)O1`, the IC50 on Adenylate cyclase type 1 [1] is less than 150 nM; on Adenylate cyclase type 1 [4] it was 82 nM. The EC50 is less than 2000 nM on Adenylate cyclase type 1 [2] and 500 nM at Adenylate cyclase type 1 [5] (read-out: EC50). At Adenylate cyclase type 1 [3], this molecule registered an Activity of 100%.
As to `C=C[C@@]1(C)CC(=O)[C@]2(O)[C@@]3(C)[C@@H](O)CCC(C)(C)[C@@H]3[C@H](O)[C@H](OC(=O)NCCOC)[C@@]2(C)O1`, the results for the IC50 on Adenylate cyclase type 1 [1] and on Adenylate cyclase type 1 [4] were greater than 150 nM and 174 nM, respectively. Moreover, the EC50 on Adenylate cyclase type 1 [2] is greater than 2000 nM; at Adenylate cyclase type 1 [5] (read-out: EC50), 1600 nM. For the same molecule, the Activity at Adenylate cyclase type 1 [3] is 97%.
For the molecule `C=C[C@@]1(C)CC(=O)[C@]2(O)[C@@]3(C)[C@@H](O)CCC(C)(C)[C@@H]3[C@H](OC(=O)NCCc3ccccn3)[C@H](O)[C@@]2(C)O1`, the IC50 at Adenylate cyclase type 1 [1] was less than 150 nM; on Adenylate cyclase type 1 [4], 117 nM. Besides, the EC50 at Adenylate cyclase type 1 [2] was less than 2000 nM; at Adenylate cyclase type 1 [5] (read-out: EC50), 1800 nM. The Activity on Adenylate cyclase type 1 [3] is 59%.
As for `C=C[C@@]1(C)CC(=O)[C@]2(O)[C@@]3(C)[C@@H](O)CCC(C)(C)[C@@H]3[C@H](OC(=O)NCCN)[C@H](O)[C@@]2(C)O1`, the IC50 on Adenylate cyclase type 1 [4] is 192 nM. The EC50 result on Adenylate cyclase type 1 [5] was “Indeterminate”.

The values above are taken from ChEMBL document CHEMBL1129369, “Forskolin carbamates: binding and activation studies with type I adenylyl cyclase” (J Med Chem, 1996).
